Data set [1] deals with Escherichia coli isolates with an ESBL-phenotype. Nature of the data set: In vitro MIC90 of a panel of approved antibiotics, US surveillance program. The class given is cell-based.
Data set [2] has as its system 385 Escherichia coli and 126 Klebsiella pneumoniae isolates. Nature of the data set: MIC, MIC50 and MIC90 by reference broth microdilution against 511 UTI/bloodstream isolates (USA and Europe 2014-2015). Format: cell-based. The note with it: 511 isolates; for EUCAST % I: EUCAST 2016 criteria; for MIC90: read-out: MIC90. For orientation: In broth dilution the organism is exposed to a series of concentrations in liquid medium.

The subject of data set [3] is Citrobacter freundii isolates. Nature of the data set: MIC of cephalosporins alone or with clavulanate/tazobactam. The class given is cell-based. The note with it: clavulanate 2:1, tazobactam 4 μg/mL.
Data set [4] has as its system Enterobacter aerogenes isolates. The data set is described as above. Format: cell-based. The note with it: Klebsiella aerogenes, clavulanate 2:1, tazobactam 4 μg/mL.
The test system of data set [5] is Enterobacter cloacae isolates. The description is as above. Format: cell-based. The note with it: clavulanate 2:1, tazobactam 4 μg/mL.
For data set [6], the system named is Escherichia coli isolates. Described as above. Format: cell-based. The note with it: clavulanate 2:1, tazobactam 4 μg/mL.
Data set [7] has as its system Klebsiella oxytoca isolates. The description is as above. The class given is cell-based. The note with it: clavulanate 2:1, tazobactam 4 μg/mL.
The test system of data set [8] is Klebsiella pneumoniae isolates. The description is as above. The class given is cell-based. The note with it: clavulanate 2:1, tazobactam 4 μg/mL.
Data set [9] relates to beta-lactamase producing E. coli (CTX-M-55; CTX-M-15, TEM-OSBL). Nature of the data set: microbe, parasite or virus in culture. The class given is cell-based. The note with it: Escherichia coli.
A short description of data set [10]: clinical. The note with it: human, in vivo. As to the method: The twice daily divided dose of study drug was administered approximately 12 hours apart. All subjects randomized to placebo received placebo oral capsules that were identical to study drug capsules and given according to the same dosing schedule and same quantity of capsules as subjects randomized to receive ceftibuten and clavulanate concurrently. All SDs, as well as the first daily dose of the MD period on […] were given while the subject was fasted. […] In addition, blood samples for assessment of trough (pre-dose) concentrations were collected on day 7, day 8, day 9, and alternate days thereafter through study day 17. […] Peak concentration (Cmax), time at which Cmax was observed (Tmax), area under the concentration-time curve to infinity (AUCinf), percent coefficient of variation (% CV), elimination half-life (T1/2), apparent total clearance of the drug from plasma after oral administration (CL/F), and apparent volume of distribution during terminal phase after non-intravenous administration (Vz/F) were determined. […] Similar to above, six subjects were randomized to receive active drug and two were randomized to receive placebo. […] Safety, tolerability and PK were assessed as described above.

The conditions of data set [11]: plasma; cited from earlier work.
Setting [12] is: Escherichia coli, E. coli (n = 124), ESBL-phenotype, read-out: MIC90.
[13] abbreviates: E. coli (n = 124), ESBL-phenotype.

Converted amounts (≈) assume the structure as drawn. Where two headings read alike, the source gives them in different places.

For `NCC[C@H](O)C(=O)N[C@@H]1C[C@H](N)[C@@H](O[C@H]2O[C@H](CN)[C@@H](O)[C@H](O)[C@H]2O)[C@H](O)[C@H]1O[C@H]1O[C@H](CO)[C@@H](O)[C@H](N)[C@H]1O` [Amikacin], the MIC90 in [1] (setting [12]) was determined as 8 µg/mL (≈ 13.7 µM).
Consider `C[C@H]1[C@H](NC(=O)/C(=N\OC(C)(C)C(=O)O)c2csc(N)n2)C(=O)N1S(=O)(=O)O` [Aztreonam], for which, in [1] (setting [12]), the MIC90 is above 16 µg/mL. Besides, in data set [2], the MIC50 was above 16 µg/mL, the “EUCAST % I” value came to 13.9% and the MIC90 was above 16 µg/mL.
Consider `CC(C)(O/N=C(\C(=O)N[C@@H]1C(=O)N2C(C(=O)[O-])=C(C[n+]3ccccc3)CS[C@H]12)c1csc(N)n1)C(=O)O` [Ceftazidime], for which the MIC90 in data set [1] (setting [12]) is above 32 µg/mL. In [2], the MIC50 was 16 µg/mL (≈ 29.3 µM), the “EUCAST % I” value was 16.2% and the MIC90 is above 32 µg/mL.
As to `CO/N=C(\C(=O)N[C@@H]1C(=O)N2C(C(=O)O)=C(CSc3nc(=O)c(=O)[nH]n3C)CS[C@H]12)c1csc(N)n1` [Ceftriaxone], in data set [1] (E. coli isolates with ESBL-producing phenotype), the “MIC90 relative to CLSI/EUCAST breakpoint for susceptibility” value is listed as “above the breakpoint for susceptibility”. In addition, the MIC90 in [1] (setting [12]) was above 8 µg/mL. In data set [2], the MIC50 was above 8 µg/mL, the “EUCAST % I” value stood at 1.2% and the MIC90 is above 8 µg/mL.
As to `O=C(O)[C@H]1/C(=C/CO)O[C@@H]2CC(=O)N21` [Clavulanate, clavulanic acid], the MIC in data set [3] (ACFR1034 (CTX-M-15, TEM-OSBL)) is 32 µg/mL; in data set [3] (ACFR1035 (CTX-M-3, TEM-OSBL)), 32 µg/mL; in data set [4] (AEAE1027 (CTX-M-14)) it was 32 µg/mL; in data set [4] (AEAE1029 (CTX-M-15)), 32 µg/mL; in data set [5] (AECL1065 (CTX-M-15)), 64 µg/mL; in data set [5] (AECL1067 (CTX-M-3)) it was 64 µg/mL. For the same molecule, the MIC came to 32 µg/mL in data set [6] (AECO001 (no ESBL)); 32 µg/mL in [6] (AECO1078 (CTX-M-15)); 32 µg/mL in [6] (AECO1147 (CTX-M-15)); 32 µg/mL in [6] (AECO1157 (CTX-M-15, TEM-OSBL)); 32 µg/mL in data set [6] (AECO1159 (CTX-M-15)); 32 µg/mL in data set [6] (AECO1169 (CTX-M-1, TEM-OSBL)). Further, the MIC in data set [6] (AECO1172 (CTX-M-14)) turned out to be 32 µg/mL; in [7] (AKOX1005 (SHV-2, TEM-1, DHA-1)) it was 32 µg/mL; in data set [7] (AKOX1009 (CTX-M-15)), 32 µg/mL; in [8] (AKPN1159 (SHV-12)), 32 µg/mL; in [8] (AKPN1161 (SHV-7)), 16 µg/mL; in data set [8] (AKPN1162 (CTX-M-15, SHV-12)), 32 µg/mL. Also, the MIC in data set [8] (AKPN1166 (CTX-M-14, SHV-12)) is 32 µg/mL; in [8] (AKPN1167 (SHV-2)), 16 µg/mL; in [9], above 32 µg/mL. The Tmax in [10] (po, 125 mg, Tmax) turned out to be 60 min. In addition, the half-life in data set [10] (po, 125 mg, T½) is 46.5 min. In addition, in data set [11], the Elimination half-life entry is “approximately 1 h”.
On to `C[C@@H](O)[C@H]1C(=O)N2C(C(=O)O)=C(S[C@@H]3CN[C@H](CNS(N)(=O)=O)C3)[C@H](C)[C@H]12` [Doripenem], for which the MIC90 in [1] (setting [12]) is at most 0.06 µg/mL.
Consider `C[C@@H](O)[C@H]1C(=O)N2C(C(=O)O)=C(SCCN=CN)C[C@H]12` [Imipenem], for which the MIC90 in data set [1] (setting [12]) came out at 0.25 µg/mL (≈ 0.835 µM). In addition, in data set [2], the MIC50 was at most 0.12 µg/mL, the “EUCAST % I” value came to 2.7% and the MIC90 was 0.5 µg/mL (≈ 1.67 µM).
Turning to `C[C@H]1COc2c(N3CCN(C)CC3)c(F)cc3c(=O)c(C(=O)O)cn1c23` [Levofloxacin], in data set [1] (setting [12]), the MIC90 is above 4 µg/mL.
For the molecule `CC1(C)S[C@@H]2[C@H](/N=C/N3CCCCCC3)C(=O)N2[C@H]1C(=O)O` [Mecillinam], in data set [2], the MIC50 turned out to be 2 µg/mL (≈ 6.15 µM) and the MIC90 is above 32 µg/mL.
In the same order, the values of `O=C1CN(/N=C/c2ccc([N+](=O)[O-])o2)C(=O)N1` [Nitrofurantoin] are 16 µg/mL (≈ 67.2 µM) and 256 µg/mL (≈ 1070 µM).
As for `C[C@]1(Cn2ccnn2)[C@H](C(=O)O)N2C(=O)C[C@H]2S1(=O)=O` [Tazobactam, tazobactam], the MIC in data set [3] (ACFR1034 (CTX-M-15, TEM-OSBL)) was above 64 µg/mL; in [3] (ACFR1035 (CTX-M-3, TEM-OSBL)), above 64 µg/mL; in data set [4] (AEAE1027 (CTX-M-14)), above 64 µg/mL; in data set [4] (AEAE1029 (CTX-M-15)), above 64 µg/mL; in data set [5] (AECL1065 (CTX-M-15)), above 64 µg/mL; in data set [5] (AECL1067 (CTX-M-3)) it was above 64 µg/mL. For the same molecule, the MIC is above 64 µg/mL in [6] (AECO001 (no ESBL)); above 64 µg/mL in data set [6] (AECO1078 (CTX-M-15)); above 64 µg/mL in [6] (AECO1147 (CTX-M-15)); above 64 µg/mL in [6] (AECO1157 (CTX-M-15, TEM-OSBL)); above 64 µg/mL in data set [6] (AECO1159 (CTX-M-15)); above 64 µg/mL in data set [6] (AECO1169 (CTX-M-1, TEM-OSBL)). The MIC in data set [6] (AECO1172 (CTX-M-14)) is above 64 µg/mL; in data set [7] (AKOX1005 (SHV-2, TEM-1, DHA-1)), above 64 µg/mL; in data set [7] (AKOX1009 (CTX-M-15)), above 64 µg/mL; in [8] (AKPN1159 (SHV-12)) it was above 64 µg/mL; in [8] (AKPN1161 (SHV-7)), above 64 µg/mL; in data set [8] (AKPN1162 (CTX-M-15, SHV-12)) it was above 64 µg/mL. In addition, the MIC was above 64 µg/mL in data set [8] (AKPN1166 (CTX-M-14, SHV-12)) and above 64 µg/mL in data set [8] (AKPN1167 (SHV-2)).
In data set [1] (Escherichia coli), `CN(C)c1cc(NC(=O)CNC(C)(C)C)c(O)c2c1C[C@H]1C[C@H]3[C@H](N(C)C)C(O)=C(C(N)=O)C(=O)[C@@]3(O)C(O)=C1C2=O` [Tigecycline] registered an MIC90 of 0.25 µg/mL (≈ 0.427 µM).
With `NC[C@H]1O[C@H](O[C@H]2[C@H](O)[C@@H](O[C@H]3O[C@H](CO)[C@@H](O)[C@H](N)[C@H]3O)[C@H](N)C[C@@H]2N)[C@H](N)C[C@@H]1O` [Tobramycin], in data set [1] (setting [12]), the MIC90 is above 8 µg/mL.
Regarding `NCC(=O)CCO` [amino ketone metabolite of clavulanate], the “% of parent exposure” value in data set [10] is “approximately 8.5%”.
In data set [1] (setting [13]), Colistin came in with an MIC90 of 0.25 µg/mL.
In turn, Gentamicin yielded an MIC90 in data set [1] (setting [13]) above 8 µg/mL.

The term MIC90 denotes the lowest concentration that inhibits either 90% of growth or 90% of the strains tested, depending on the study. By MIC50 is commonly meant an inhibitory concentration at the 50% level, which refers to growth in some studies and to a panel of isolates in others. Read a low MIC50 as greater potency. In general, Tmax refers to the time from dosing to the highest level. In general, half-life refers to the time in which the quantity being followed falls by half. Read a high half-life as slow decline.

These data come from patent publication US20180015100A1, “COMBINATION PRODUCTS FOR THE TREATMENT OF BACTERIAL INFECTIONS AND METHODS OF PRODUCING OR DOSING OF SAME” (priority 2016, published 2018).
